Reference: patent US20140193338A1, “COMPOUNDS FOR USE IN IMAGING, DIAGNOSING AND/OR TREATMENT OF DISEASES OF THE CENTRAL NERVOUS SYSTEM” (PIRAMAL IMAGING SA, priority 2011, published 2014)
Entries after “also recorded” stand apart in the source; their conditions may differ.

How the values were obtained:
[1] = target: T1, MAO-B (Homo sapiens, UniProt P27338); assay: Autoradiography with [^18F]rasagiline on human brain sections, blocking with excess inhibitor; format: binding
T1 construct: Autoradiography using [^18F]rasagiline on human brain slices from a healthy subject; from tissue; host or cells: human brain hemisphere cryosections (100 µm)
T1 sequence (P27338 1-520): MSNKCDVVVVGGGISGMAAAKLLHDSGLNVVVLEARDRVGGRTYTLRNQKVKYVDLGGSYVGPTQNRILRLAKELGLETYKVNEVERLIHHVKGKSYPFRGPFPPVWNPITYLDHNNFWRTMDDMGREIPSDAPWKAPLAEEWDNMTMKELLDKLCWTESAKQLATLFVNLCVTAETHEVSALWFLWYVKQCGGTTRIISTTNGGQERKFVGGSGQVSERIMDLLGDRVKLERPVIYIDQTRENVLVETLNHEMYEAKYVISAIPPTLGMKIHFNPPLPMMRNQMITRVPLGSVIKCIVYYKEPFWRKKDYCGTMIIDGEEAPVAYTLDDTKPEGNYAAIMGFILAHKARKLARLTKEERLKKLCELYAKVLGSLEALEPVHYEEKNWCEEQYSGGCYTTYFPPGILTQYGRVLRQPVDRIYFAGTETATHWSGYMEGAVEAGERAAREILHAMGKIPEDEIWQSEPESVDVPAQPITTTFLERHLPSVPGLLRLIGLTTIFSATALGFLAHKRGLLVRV
Protocol: Binding of the [^18F]rasagiline (compound of formula F) was investigated on human brain sections from normal subjects using a standard protocol.
In brief, whole brain hemispheres were cut at a 100 μm thickness in a Cryocut (Leica, Germany), thaw mounted onto gelatine glass slides and kept at −25° C. before use. Thereafter, the slides containing the regions of interest (e.g. hippocampus, thalamus) were removed and brought to room temperature. The sections were incubated with 0.2 MBq/mL [^18F] compound F in 50 mM TRIS/0.1% BSA (pH 7.4) with salts (120 mM NaCl, 5 mM KCl, 1 mM CaCl2, 1 mM MgCl2) for 90 min at room temperature and washed three times for 5 min each in 50 mM TRIS (pH 7.4). The sections were dipped once into ice cold distilled water, dried at room temperature and exposed to PhosphorImager plates (FUJI BAS 5000) overnight.

[2] = tested on: MAO-B; assay: PET brain time activity curves (SUV) in cynomolgus monkeys; format: in vivo, cynomolgus monkey
Protocol: One monkey weighing 6.3 kg was injected i.v. with 163 MBq [^18F]rasagiline (compound F) under sevofluorane anaesthesia.
Two cynomolgus monkeys weighting 5.25 and 6.2 kg, respectively were investigated. They were injected i.v. under sevofluorane anaesthesia with 168 MBq and 174 MBq [^18F],(^2H2)rasagiline (1), respectively.

[3] = Blood radioactivity / metabolite profile by radio-HPLC after tracer injection; format: in vivo, cynomolgus monkey; conditions: for number of ^18F labelled metabolites detected: plasma, radio-HPLC, over the time of the investigation
Excerpt: In addition, the blood radioactivity profiles have been monitored over time using radio-HPLC measurements and were decay corrected (d.c.) (FIGS. 4 and 5).

[4] = pre-treated with 0.5 mg/kg (L)-deprenyl

SMILES	blocking of the [^18F]rasagiline (compound F) autoradiography signal ([1]; excess (10 μM) of the inhibitor in the incubation solution)	initial uptake in whole brain relative to [^18F]rasagiline (compound F) ([2]; i.v., PET)	decrease in uptake after deprenyl pre-treatment, Cerebellum [2, 4]	decrease in uptake after deprenyl pre-treatment, Striatum [2, 4]	decrease in uptake after deprenyl pre-treatment, Thalamus [2, 4]	decrease in uptake after deprenyl pre-treatment, cortex [2, 4]	brain elimination behaviour after initial uptake ([2]; whole brain TAC)	metabolite corrected blood radioactivity time curve compared to the non-deuterated compound ([3]; decay corrected)	number of ^18F labelled metabolites detected [3]	initial brain uptake, striatal (caudate and putamen) and thalamic ROI ([2]; i.v., PET)	initial brain uptake, whole brain ([2]; i.v., PET)	increase of whole brain signal over time ([2]; until the end of the observation time)	whole brain level after slight elimination ([2]; within 15 minutes)	specificity of the ligand ([1]; conclusion from blocking experiments)	autoradiography signal in brain regions with known MAO-B activity ([1]; human brain slices, healthy subject, globus pallidus, putamen, caudate, thalamus, hippocampus, 0.2 MBq/mL, 90 min)
C#CCN[C@@H]1CCc2ccccc21 [rasagiline]	completely blocked	–	–	–	–	–	–	–	–	–	–	–	–	–	–
[2H]C([2H])(C#C)N[C@H]1c2ccccc2C[C@@H]1[18F] [compound 1, (1S,2S)-2-[^18F]fluoro-N-[(1,1-^2H2)prop-2-yn-1-yl]indan-1-amine]	–	comparable to that of [^18F]rasagiline (compound F)	46%	45%	47%	40%	eliminated in a manner resembling that of a reversible ligand	slower elimination; also recorded: increased blood radioactivity over time	two	–	–	–	–	–	–
C#CCN[C@H]1c2ccccc2C[C@@H]1[18F] [compound F, reference compound]	–	–	–	–	–	–	–	–	eight	ca. 400 % SUV	ca. 280 % SUV	about 35 % SUV	ca. 225 % SUV	specifically interacting with MAO-B	high signal intensity
